Two compounds from PMC3795843 (Journal of molecular biology, 2013) can be followed below.

Test [1] concerns the target T1, Dbp5p (Saccharomyces cerevisiae, UniProt P20449).
T1 sequence (P20449 1-482): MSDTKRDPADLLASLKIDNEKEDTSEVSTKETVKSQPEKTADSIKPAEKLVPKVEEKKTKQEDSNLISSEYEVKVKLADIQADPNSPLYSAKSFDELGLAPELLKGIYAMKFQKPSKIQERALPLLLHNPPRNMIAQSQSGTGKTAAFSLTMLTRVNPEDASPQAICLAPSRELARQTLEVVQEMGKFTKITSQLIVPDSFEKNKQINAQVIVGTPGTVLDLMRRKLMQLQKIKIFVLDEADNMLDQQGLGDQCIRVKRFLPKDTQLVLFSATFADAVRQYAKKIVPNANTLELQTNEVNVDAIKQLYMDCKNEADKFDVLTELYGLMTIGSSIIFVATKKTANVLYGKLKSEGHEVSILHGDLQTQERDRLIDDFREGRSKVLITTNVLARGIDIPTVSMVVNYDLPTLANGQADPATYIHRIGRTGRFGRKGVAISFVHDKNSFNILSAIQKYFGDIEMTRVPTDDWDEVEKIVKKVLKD
Description: inhibition of RNA duplex unwinding, native PAGE. The following applies: 0.5 mM nucleotide, 0.5 mM ATP, 40 mM Hepes pH 7.5, 30 °C. The format is biochemical.

Test [2] addresses T2, Sub2p (Saccharomyces cerevisiae, UniProt Q07478).
T2 sequence (Q07478 2-446): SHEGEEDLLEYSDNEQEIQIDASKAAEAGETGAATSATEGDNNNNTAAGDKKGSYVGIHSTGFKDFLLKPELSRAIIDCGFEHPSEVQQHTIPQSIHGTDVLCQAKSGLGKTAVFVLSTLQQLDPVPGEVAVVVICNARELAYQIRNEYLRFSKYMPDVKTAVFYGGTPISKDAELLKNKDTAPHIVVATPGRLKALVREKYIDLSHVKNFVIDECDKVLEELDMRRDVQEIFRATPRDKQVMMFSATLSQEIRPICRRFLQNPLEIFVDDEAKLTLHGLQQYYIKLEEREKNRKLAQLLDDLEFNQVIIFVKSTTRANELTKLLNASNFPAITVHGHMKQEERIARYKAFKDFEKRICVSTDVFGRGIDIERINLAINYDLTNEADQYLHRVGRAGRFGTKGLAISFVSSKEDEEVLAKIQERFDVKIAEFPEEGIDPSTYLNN
Description: inhibition of RNA duplex unwinding, native PAGE. Type of test: biochemical. The settings on record: 0.5 mM nucleotide, 0.5 mM ATP, 10 mM Tris pH 7.0, 50 mM KCl, 30 °C.

Test [3] deals with Ded1p (Saccharomyces cerevisiae, UniProt P06634). Put plainly: fluorescence competition with mantADP. Type of test: binding. The settings on record: no RNA; pH 8.0, 50 mM NaCl, 0.5 mM excess Mg2+, 19 °C.
Chain of Ded1p (P06634 2-604): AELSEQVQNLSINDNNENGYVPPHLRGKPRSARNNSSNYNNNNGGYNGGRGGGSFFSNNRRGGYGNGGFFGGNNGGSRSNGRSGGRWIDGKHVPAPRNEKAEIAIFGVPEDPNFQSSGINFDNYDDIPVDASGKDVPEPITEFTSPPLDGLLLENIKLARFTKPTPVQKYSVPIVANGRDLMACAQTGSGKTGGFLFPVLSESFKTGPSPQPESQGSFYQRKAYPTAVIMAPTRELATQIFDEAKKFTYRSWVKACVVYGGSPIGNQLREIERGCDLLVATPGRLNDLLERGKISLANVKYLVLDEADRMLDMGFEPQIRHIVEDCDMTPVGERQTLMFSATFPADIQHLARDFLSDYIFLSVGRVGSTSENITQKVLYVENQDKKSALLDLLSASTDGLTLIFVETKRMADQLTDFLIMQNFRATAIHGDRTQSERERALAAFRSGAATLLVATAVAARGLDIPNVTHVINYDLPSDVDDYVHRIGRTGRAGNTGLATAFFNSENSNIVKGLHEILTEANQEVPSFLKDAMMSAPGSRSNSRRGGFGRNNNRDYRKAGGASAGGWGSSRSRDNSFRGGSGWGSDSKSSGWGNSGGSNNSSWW

For `Nc1ncnc2c1ncn2[C@@H]1O[C@H](COP(=O)(O)OP(=O)(O)O)[C@@H](O)[C@H]1O` [ADP], the kunw result in test [1] was “Sub2p and Dbp5p showed only significant inhibition by ADP”; in test [2] it was “Sub2p and Dbp5p showed only significant inhibition by ADP”.
On to `Nc1ncnc2c1ncn2[C@@H]1O[C@H](COP(=O)(O)OP(=O)(O)OP(=O)(O)O)[C@@H](O)[C@H]1O` [ATP], for which, in test [3], the K1/2 entry is “Binding of ATP (red), ADP (blue), and AMP (green) to Ded1p in the absence of RNA”.
